Measurements taken from ChEMBL document CHEMBL3751679, “DNA cleavage at the AP site via β-elimination mediated by the AP site-binding ligands” (Bioorg Med Chem, 2016).
The source made the active and inactive calls. The calls are words filed in the database; no cut-off is given here.

What was measured:
[1] = species on record: Homo sapiens; assay: Binding affinity to duplex DNA1(AP)/DNA2(A) (unknown origin) assessed as APE1 catalyzed beta-elimination product formation by gel electrophoresis
[2] = species on record: Homo sapiens; assay: Binding affinity to duplex DNA1(AP)/DNA2(T) (unknown origin) assessed as beta-elimination product formation at 10 uM pH 7 by gel electrophoresis
[3] = species on record: Homo sapiens; assay: Binding affinity to duplex DNA1(AP)/DNA2(A) (unknown origin) assessed as beta-elimination product formation at 10 uM pH 7 by gel electrophoresis
[4] = species on record: Homo sapiens; assay: Binding affinity to duplex DNA1(AP)/DNA2(T) (unknown origin) assessed as APE1 catalyzed beta-elimination product formation by gel electrophoresis
[5] = species on record: Homo sapiens; assay: Binding affinity to duplex DNA1(AP)/DNA2(C) (unknown origin) assessed as beta-elimination product formation at 10 uM pH 7 by gel electrophoresis
[6] = species on record: Homo sapiens; assay: Binding affinity to duplex DNA1(AP)/DNA2(G) (unknown origin) assessed as beta-elimination product formation at 10 uM pH 7 by gel electrophoresis
[7] = species on record: Homo sapiens; assay: Binding affinity to duplex DNA1(AP)/DNA2(C) (unknown origin) assessed as APE1 catalyzed beta-elimination product formation by gel electrophoresis
[8] = species on record: Homo sapiens; assay: Binding affinity to duplex DNA1(AP)/DNA2(C) (unknown origin) assessed as beta-elimination product formation by HPLC analysis
[9] = species on record: Homo sapiens; assay: Binding affinity to duplex DNA1(AP)/DNA2(C) (unknown origin) assessed as beta-elimination product formation after 1 hr at pH 8 by gel electrophoresis
[10] = species on record: Homo sapiens; assay: Binding affinity to duplex DNA1(AP)/DNA2(G) (unknown origin) assessed as APE1 catalyzed beta-elimination product formation by gel electrophoresis

Activity [2] | Activity [3] | Activity [5] | Activity [6] | SMILES | Activity [7] | also measured
 |  |  |  | Cc1cn(CCCNCCCNCCCN)c(=O)[nH]c1=O |  | Activity [1]: inactive
Active | Active | Active | Active | NCCCNCCCNCCCn1cnc2c(N)ncnc21 |  | Activity [4]: Active
 |  |  |  | NCCCNCCCN | inactive | 
inactive | inactive | Active | inactive | NCCCNCCCNCCCn1cnc2c(=O)[nH]c(N)nc21 | Active | Activity [8]: Active; Activity [9]: Active
 |  |  |  | NCCCNCCCNCCCn1ccc(N)nc1=O |  | Activity [10]: inactive
